Results published in patent US20120053235A1, “Dihydromyricetin as an IKK-beta inhibitor used for treatment of arthritis, cancer and autoimmune conditions, and other diseases or disorders” (HONG KONG BAPTIST UNIVERSITY, priority 2010, published 2012).

What was measured:
[1] = target: T1, His-tagged recombinant human IKK-β (Homo sapiens, UniProt O14920); assay: IKK activity assay (K-LISA IKK-β-Inhibitor Screening Kit); assay type: biochemical; conditions: DMY at 50 μM and 100 μM; FIG. 4A
T1 construct: His; purchased Calbiochem
T1 sequence (O14920 1-756): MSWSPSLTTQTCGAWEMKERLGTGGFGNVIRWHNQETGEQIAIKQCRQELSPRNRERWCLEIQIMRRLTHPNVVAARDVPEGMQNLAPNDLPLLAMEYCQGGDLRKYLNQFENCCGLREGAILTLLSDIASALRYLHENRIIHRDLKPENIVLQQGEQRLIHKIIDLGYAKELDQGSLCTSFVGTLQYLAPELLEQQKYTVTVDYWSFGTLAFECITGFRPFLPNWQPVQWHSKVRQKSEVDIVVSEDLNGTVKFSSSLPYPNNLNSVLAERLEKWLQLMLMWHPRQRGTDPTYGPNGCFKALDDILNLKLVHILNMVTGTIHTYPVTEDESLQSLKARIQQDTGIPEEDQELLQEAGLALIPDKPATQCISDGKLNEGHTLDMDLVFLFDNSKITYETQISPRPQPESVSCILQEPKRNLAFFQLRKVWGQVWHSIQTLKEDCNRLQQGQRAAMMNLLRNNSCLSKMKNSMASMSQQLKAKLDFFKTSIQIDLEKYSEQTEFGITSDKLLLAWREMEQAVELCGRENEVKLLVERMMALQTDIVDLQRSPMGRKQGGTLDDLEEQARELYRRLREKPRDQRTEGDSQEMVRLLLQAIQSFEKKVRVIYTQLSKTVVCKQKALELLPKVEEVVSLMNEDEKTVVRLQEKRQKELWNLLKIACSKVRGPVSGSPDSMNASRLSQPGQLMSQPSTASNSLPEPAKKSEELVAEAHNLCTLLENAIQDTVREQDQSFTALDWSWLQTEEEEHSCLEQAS
Experimental: The direct inhibitory effect of DMY on IKK activity was examined by using K-LISA™ IKK-β-Inhibitor Screening Kit (Calbiochem). Both the glutathione-S-transferase (GST)-IκB-α substrate and His-tagged recombinant human IKK-β were incubated with or without DMY in the wells of a glutathione-coated 96-well plate. The reaction was terminated with the addition of kinase stop solution after being incubated at 30° C. for 30 minutes. Then, anti-Phospho IκB-α (Ser32/Ser36) antibody was used to determine the phosphorylated GST-IκB-α substrate, and the horse radish peroxidase (HRP)-conjugated color was developed by 3,3′,5,5′-tetramethylbenzidine (TMB) substrate. ELISA stop solution was used to stop the color development and the absorbance was measured at 450 nm the wavelength at which was directly related to the level of IKK activity.

[2] = tested on: NF-κB-Luciferase reporter in Jurkat T cells; assay: NF-κB reporter assay (luciferase); assay type: cell-based; conditions: 20 ng/ml PMA plus 1 μM ionomycin, 6 hours; FIG. 6B
Experimental: The Jurkat T cells are transiently transfected with NF-κB-Luciferase reporter plasmid with lipofectamine LTX (Invitrogen). The transfected cells were treated with 20 ng/ml PMA plus 1 μM ionomycin in the presence or absence of biotin-DMY for 6 hours. The cells were then lysed in Passive Lysis Buffer (Promega) and the transcriptional activity was determined by measuring the activity of firefly luciferase in a microplate luminometer (Perkin Elmer) using Luciferase Reporter Assay (Promega).

[3] = tested on: c-Fos nuclear translocation in human T lymphocytes; assay: c-Fos nuclear translocation assay (Western blot); assay type: cell-based; conditions: pretreated 1 hour, PMA plus ionomycin 120 minutes
Experimental: For c-Jun and c-Fos nuclear translocation assays, the human T lymphocytes (6×10^6/well) were pretreated with DMY for 1 hour, and then stimulated with 20 ng/ml PMA plus […] ionomycin for 120 minutes. After the cells were harvested and washed with PBS twice, the nuclear proteins of cells were then prepared using NucBuster™ Reagents. Afterwards, the washed cells were re-suspended using 60 μl NucBuster™ Reagent 1 per 30 μl of packed cells and processed twice by vortexing for 15 seconds, and followed by the incubation on ice for 5 minutes and second vortexing for 15 seconds, and finally centrifuged at 16000 g for 5 minutes. The supernatants containing cytoplasmic proteins were discarded; the cell pellets were re-suspended in 45 μl of NucBuster Extraction Reagent 2. The same vortexing, icing, and repeated vortexing steps were repeated once to prepare the nuclear proteins of the cells.
Protein concentrations were determined by using Bio-Rad Protein assay. Equal amounts of nuclear proteins or whole-cell lysates were analyzed by 10% SDS-PAGE. After electrophoresis, the proteins were electro-transferred to the nitrocellulose membranes. […]

human recombinant IKK-β = target: T2, human recombinant IKK-β (Homo sapiens, UniProt O14920); assay: IKK-β competition assay (dot blot with biotin-DMY); assay type: binding; conditions: 100 μM biotin-DMY, 0, 1 and 5 folds of parental compound; FIG. 5A
T2 sequence (O14920 1-756): T1 sequence (O14920 1-756)
Experimental: 5 ng of human recombinant IKK-β was incubated with 100 μM of the biotin-DMY in the presence of 0, 1, and 5 folds of concentration of its parental compound. The mixture was dropped on the nitrocellulose membranes, and then detected with streptavidin horseradish peroxidase. The binding signal was then detected by using ECL.

[4] = tested on: p38 kinase phosphorylation; assay: Phosphorylation of MAPKs (Western blot): p38; assay type: cell-based, human; conditions: PMA plus ionomycin 10 minutes; FIG. 7
Experimental: (§1) For determination of the phosphorylation of mitogen-activated protein kinases expression, the cells were stimulated by 20 ng/ml PMA plus […] ionomycin for 10 minutes. The whole-cell lysates were prepared by lysing the harvested T cells with lysis buffer (50 mM Tris-HCl, pH 7.5, 250 mM NaCl, 5 mM EDTA, 1 mM DTT, 1% Triton, 50 mM NaF, 1 mM sodium orthovanadate, 0.5 mM PMSF and 1× protease inhibitor mix, Roche).
(§2) Protein concentrations were determined by using Bio-Rad Protein assay. Equal amounts of nuclear proteins or whole-cell lysates were analyzed by 10% SDS-PAGE. After electrophoresis, the proteins were electro-transferred to the nitrocellulose membranes. After proteins were transferred, the membranes were blocked by 5% dried milk for 60 minutes and then washed three times for 5 min in each washing interval with TBS-T. The membranes were incubated with corresponding primary antibodies overnight at 4° C. and then washed with three times with TBS-T. Afterwards, the membranes were incubated again with HRP-conjugated secondary antibodies for 60 minutes. The blots were developed using the ECL.

JNK phosphorylation = assay: Phosphorylation of MAPKs (Western blot): JNK; assay type: cell-based, human; conditions: PMA plus ionomycin 10 minutes; FIG. 7
Experimental: as §1, §2

`O=C1c2c(O)cc(O)cc2O[C@H](c2cc(O)c(O)c(O)c2)[C@H]1O` [DMY, dihydromyricetin] was tested, and the “activity of IKK-β” value [1] was “significantly inhibited the activity of IKK-β”, the NF-κB transcriptional activity [2] was “significantly suppressed” and the “nuclear translocation of c-Fos” value [3] was “suppress nuclear translocation”. For the same molecule, the “competition with biotin-DMY for binding to IKK-β” value (human recombinant IKK-β) was “can compete with biotin-DMY”, the p38 kinase phosphorylation [4] was “suppressed” and the JNK phosphorylation (JNK phosphorylation) was “suppressed”.
